Results reported in the NIST ThermoML archive (doi:10.1021/je800150h).
± gives the expanded uncertainty stated by the source.

Conditions: 101 kPa, Liquid

SMILES | mass density (278.1 K) | viscosity (278.1 K) | mass density (283.1 K) | viscosity (283.1 K) | viscosity (288.15 K) | viscosity (293.15 K) | viscosity (298.15 K) | viscosity (303.15 K) | mass density (308.15 K) | viscosity (308.15 K) | viscosity (313.15 K) | viscosity (318.15 K) | viscosity (323.15 K) | also measured
CCO [ethanol] | 802.6 ± 3.4 kg/m3 | 1.629 ± 0.077 mPa·s | 798.4 ± 3.1 kg/m3 | 1.468 ± 0.07 mPa·s | 1.341 ± 0.065 mPa·s | 1.207 ± 0.059 mPa·s | 1.105 ± 0.054 mPa·s | 1.01 ± 0.05 mPa·s | 777.1 ± 3.2 kg/m3 | 0.92 ± 0.046 mPa·s | 0.84 ± 0.043 mPa·s | 0.772 ± 0.04 mPa·s | 0.713 ± 0.037 mPa·s | mass density (268.1 K): 811.1 ± 3.8 kg/m3; viscosity (268.1 K): 1.975 ± 0.093 mPa·s; mass density (273.1 K): 806.8 ± 3.6 kg/m3; viscosity (273.1 K): 1.775 ± 0.084 mPa·s; mass density (288.15 K): 794.2 ± 2.9 kg/m3; mass density (293.15 K): 789.9 ± 2.7 kg/m3; mass density (298.15 K): 785.7 ± 2.9 kg/m3; mass density (303.15 K): 781.4 ± 3.1 kg/m3; mass density (313.15 K): 772.8 ± 3.4 kg/m3; mass density (318.15 K): 767.9 ± 3.6 kg/m3; mass density (323.15 K): 763.4 ± 3.7 kg/m3
O [water] | 999.9 ± 4.4 kg/m3 | 1.519 ± 0.072 mPa·s | 999.7 ± 4.2 kg/m3 | 1.308 ± 0.063 mPa·s | 1.14 ± 0.056 mPa·s | 1.005 ± 0.05 mPa·s | 0.894 ± 0.045 mPa·s | 0.799 ± 0.041 mPa·s | 994.1 ± 4.3 kg/m3 | 0.723 ± 0.038 mPa·s | 0.655 ± 0.035 mPa·s | 0.599 ± 0.032 mPa·s | 0.548 ± 0.03 mPa·s | 
